Reference: patent US20250179024A1, “AMYLOID AND ASSOCIATED PATHOLOGY MODULATORS AND METHODS THEREOF” (Jawaharlal Nehru Centre for Advanced Scientific Research, priority 2022, published 2025)

How the values were obtained:
Aβ oligomers = target: T1, Aβ oligomers (Homo sapiens, UniProt P05067); test: Dot blot assay of Aβ oligomer inhibition (A11 antibody); type: biochemical; details: Aβ 10 μM, NMIs 20 μM, 4° C., 24 h
T1 construct: is a 42 amino acid proteolytic product from the amyloid precursor protein; purchased Invitrogen
Description: Aggregation modulation by toxic Aβ aggregates were assessed and were quantified by dot blot assay. Aβ peptide (10 μM) was dissolved in phosphate buffered saline (PBS, 10 mM, pH 7.4), incubated alone and with NMIs (20 μM) at 37° C. for 48 h. For concentration dependent inhibition, 10 μM Aβ peptide was incubated with 1, 2, 5, 10 and 20 μM of NMIs and incubated. Samples for oligomer inhibition studies were prepared by incubating Aβ alone and with NMIs at 4° C. for 24 and subjected to dot blot analysis. For dissolution studies, Aβ peptide alone was incubated in PBS for 48 h to prepare fibrils and then incubated with NMIs further for 48 h. For dot blot experiment, 5 μL of sample was blotted on activated PVDF (polyvinylidene fluoride) membrane in triplicates and air dried. The membrane was blocked with skimmed milk powder for 1 h at room temperature. The blot paper was washed with tris-buffered saline with 0.01% Tween 20 (TBST) three times for 5 min. Blot paper was treated with fibril specific OC primary antibody (Rabbit, 1:1000 dilution) overnight at 4° C. For oligomers blot A11 anti-oligomer antibody (Rabbit 1:1000) was used. […] Blots were analyzed and quantified by ImageJ software. […] The ability of NMIs (M3) to inhibit the formation of Aβ oligomers was assessed by dot blot assay. […]

SH-SY5Y cells = test: Mitochondrial membrane potential (MMP) measurement, Mitotracker Orange; type: cell-based; details: Aβ 20 μM, 18 h; for MMP relative to control (100%): Aβ alone 70%
Description: For quantifying relative change in MMP, SH-SY5Y cells were seeded into 96 plates and incubated. After 24 h, cells were treated with Aβ (20 μM) alone and with two different concentrations of NMIs (M3) (20 and 50 μM) for 18 h and stained with Mitotracker Orange (500 nM) in media for 15 min followed by washing with PBS twice. Then quickly fluorescence was measured (λex=554 nm and λem=576 nm) by Spectramax multi-well plate reader in well scan mode (>80 points, with 6 flashes per read) and averaged the value. The relative fluorescence of treatments in comparison with control was calculated to assess the change in MMP.
For fluorescence imaging, cells were seeded into glass bottom dishes and incubated for 24 h. Then treated with Aβ (20 μM) alone and with NMIs (M3) (50 μM) in low serum media for 18 h and stained with Mitotracker Orange (500 nM) in media for 15 min. Cells were washed with PBS thrice and imaged in live cell set up in Rhodamine channel using 63× oil immersion using Leica DMi8 fluorescence microscope.
The compound M3 with aggregation modulation and antioxidant activity potentially prevent Aβ mediated mitochondrial damage. Quantitatively measurement of mitochondrial membrane potential (MMP) changes was carried out. SH-SY5Y cells were cultured in 96 well plate, treated with Aβ (20 μM) alone and with different concentrations of M3 (20 μM and 50 μM) for 18 h and relative MMP was measured using MitoOrange fluorescence, a MMP-dependent mitochondrial probe. MMP of Aβ treated cells dropped to 70% compared to control (100%) reflecting the functional damage to mitochondria. Upon treatment with M3 at two concentrations 20 μM and 50 µM, MMP was improved to 88% and 93%, respectively, which indicated prevention of mitochondrial damage (FIG. 14A).
Changes in MMP were visualized by treating the cells with Aβ (20 μM) alone and with M3 (50 μM) for 18 h followed by staining with MitoOrange. […] The ability of M3 to modulate Aβ-induced ROS levels in mitochondria was evaluated by the MitoSOX probe. […]

NF-kβ = test: Western blot of NF-kβ in C6 microglia; type: cell-based; details: LPS 500 ng/mL, Aβ 5 μM, compound 10 μM; Aβ alone 2.62 fold
Description: Western blot analysis was performed to analyse the changes in the protein levels from cell lysates. SH-SY5Y and C6 cells were cultured to 80% confluence in T25 flask, trypsinised and seed into 12 well plate. The cells were cultured for 30 h and then treated with LPS (500 ng/mL) in low serum media for 6 h. Then the cells were treated with Aβ42 (5 μM) alone and with NMIs (M3) (10 μM) for 18 h. The cells were harvested by trypsinisation and the protein was extracted in RIPA lysis buffer with protease inhibitor cocktail (1×). Briefly cells were washed with dPBS and lysed in […] of RIPA lysis buffer with gentle shaking in 4° C. for 30 min. Then the cells were centrifuged at 16000 g for 20 min and the supernatant containing protein was collected and quantified by Bradford assay. The protein lysate was subjected to SDS-PAGE (12% resolving gel) and transferred to PVDF membrane. The blot paper was blocked with 5% skim milk powder for 1 h at room temperature and then washed thrice with TBST. […] All the western blots were quantified by using ImageJ, data was plotted and analysed by GraphPad prism5.
NF-kβ is a tangible drug target for neuroinflammation and AD. […] C6 microglia were primed with LPS (500 ng/mL) followed by Aβ (5 μM) treatment to induce inflammation, which was monitored by the change in NF-kβ levels in western blot analysis (FIG. 16F).

T1 sequence (P05067 672-713 limits assumed): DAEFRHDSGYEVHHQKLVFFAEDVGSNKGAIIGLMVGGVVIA

| Compound | oligomer inhibition (Aβ oligomers) [%] | MMP relative to control (100%) (SH-SY5Y cells; compound 20 μM) [%] | MMP by fluorescence imaging (SH-SY5Y cells; compound 50 μM) | MMP relative to control (100%) (SH-SY5Y cells; compound 50 µM) [%] | NF-kβ level compared to control (NF-kβ) [fold] |
| --- | --- | --- | --- | --- | --- |
| CN(C)c1ccc2c3c(cccc13)C(=O)N(CCc1ccc(O)c(O)c1)C2=O [M1, 2-(3,4-dihydroxyphenethyl)-6-(dimethylamino)-1H-benzo[de]isoquinoline-1,3(2H)-dione] | 33 | – | – | – | – |
| O=C1c2cccc3c(N(Cc4ccccn4)Cc4ccccn4)ccc(c23)C(=O)N1CCc1ccc(O)c(O)c1 [M3, 6-(bis(pyridin-2-ylmethyl)amino)-2-(3,4-dihydroxyphenethyl)-1H-benzo[de]isoquinoline-1,3(2H)-dione] | – | 88 | least affected | 93 | 1.78 |
